Measurements reported in the CheMixHub viscosity set.
Values joined by “and” are separate entries in the source; they are usually repeats but may differ in a detail not shown here. Identical values can stand only once.

Legend:
[1] = xn = mol fraction of the nth substance listed; details: 100 kPa

CCC12CC3CC(CC(C3)C1)C2 + CCCCCCCCCCC
viscosity [mPa·s], [1]
Details | x1 = 0.1012 | x1 = 0.2042 | x1 = 0.3018 | x1 = 0.4017 | x1 = 0.5014 | x1 = 0.6059 | x1 = 0.7013 | x1 = 0.8052 | x1 = 0.8999
293.15 K | 1.348 | 1.47 | 1.631 | 1.86 | 2.179 | 2.592 | 3.18 | 4.01 | 5.036
298.15 K | 1.203 | 1.334 | 1.489 | 1.692 | 1.93 | 2.302 | 2.77 | 3.47 | 4.339
303.15 K | 1.108 | 1.225 | 1.366 | 1.546 | 1.764 | 2.091 | 2.514 | 3.129 | 3.854
308.15 K | 1.025 | 1.133 | 1.271 | 1.418 | 1.601 | 1.883 | 2.235 | 2.77 | 3.404
313.15 K | 0.953 | 1.049 | 1.173 | 1.311 | 1.472 | 1.728 | 2.039 | 2.509 | 3.078
318.15 K | 0.887 | 0.983 | 1.092 | 1.22 | 1.377 | 1.6 | 1.882 | 2.284 | 2.781
323.15 K | 0.829 | 0.92 | 1.013 | 1.135 | 1.272 | 1.472 | 1.723 | 2.094 | 2.512

CC(=O)CC(C)C
viscosity
Details | 293.15 K | 298.15 K | 303.15 K | 308.15 K | 313.15 K | 318.15 K | 323.15 K
100 kPa | 0.59 mPa·s | – | 0.53 mPa·s | – | 0.47 mPa·s | – | 0.42 mPa·s
101 kPa | 0.575 mPa·s | 0.543 mPa·s and 0.54 mPa·s and 0.543 mPa·s | – | 0.494 mPa·s and 0.476 mPa·s and 0.456 mPa·s | 0.443 mPa·s | – | 0.401 mPa·s
101.3 kPa | – | 0.543 mPa·s | 0.519 mPa·s | – | 0.467 mPa·s | – | –
101.32 kPa | 0.5848 mPa·s | 0.5463 mPa·s | – | 0.4871 mPa·s | – | – | –
101.33 kPa | 0.5848 mPa·s and 0.586 mPa·s | 0.5463 mPa·s and 0.542 mPa·s | 0.52 mPa·s | 0.4871 mPa·s and 0.505 mPa·s | – | 0.447 mPa·s | –
